In patent US10987357B2, “Aerosolized fluoroquinolones and uses thereof” (Horizon Orphan, LLC, priority 2005, dated 2021):
Read-outs that look alike come from different tables or passages of the source.

How the values were obtained:
physchem = conditions: for Initial Solution pH / Initial Solution Appearance: 10 mg/mL in sterile water; for Initial Solution Appearance: room temperature; for solubility at 10 min: aqueous buffer, thermodynamic from solid; for pH of final solution / After pH Adjustment Appearance / After pH Adjustment pH: 10 mg/mL; for After pH Adjustment Appearance / After pH Adjustment pH: titrated with 1N HCl; for solubility on titration with 1N HCl: pH 1.5
Experimental: A 2 to 20 mg sample of each antibiotic was weighed into sterile plastic tubes and brought up with a volume of sterile water to make a 10 mg/mL solution or suspension of the antibiotic. Samples were incubated for approximately 10 minutes at room temperature with occasional mixing, prior to further handling.
The insoluble solutions were titrated with 1N HCl to the point of visible solubility, and the pH of the solubilized solution determined.
After the pH adjustment, and following a further 10 minute incubation period with occasional mixing, the final appearance of the solutions was determined, just prior to the aerosol tolerability and taste test.

MSSA = conditions: Table 6; cited from earlier work
[1] = test system: methicillin resistant Staphylococcus aureus (MRSA); conditions: cited from earlier work
[2] = test system: Pseudomonas aeruginosa (Pa); conditions: cited from earlier work
[3] = test system: Streptococcus pneumonia (Sp); conditions: cited from earlier work; for SP MIC90: Table 6; for Sp MIC90: Table 7
Sa = conditions: Table 7; cited from earlier work
[4] = Rat pharmacokinetic model (IV vs microspray aerosol, intratracheal); assay type: in vivo, rats; conditions: 10 mg/kg; for AUC / AUC(0-inf) / half-life: rat; for AUC: epithelial lining fluid (ELF); for AUC(0-inf) / half-life: serum; for half-life: read-out: Serum t1/2 (converted)
Experimental: […] Blood samples are taken at various times over 3 hours to determine the plasma pharmacokinetic parameters. […] The plasma and tissue concentrations are determined by an HPLC method and the data are then fit using WinNonlin.

[5] = test system: P. aeruginosa strain PAM 1723; assay: Mouse lung infection efficacy model; conditions: Pseudomonas aeruginosa, PAM1723, in Mus musculus
Experimental: The inoculum is adjusted to ca. 5×10^6 CFU/ml by correlation of absorbance at 600 nm with predetermined plate counts. […] On day 5, mice are infected by an intratracheal instillation of 0.05 ml of inoculum while under isoflurane anesthesia (5% isoflurane in oxygen running at 4 L/min). […] Mice are sacrificed 1 and 4 hours after treatment, their lungs removed, homogenized and plated to determine colony counts.

[6] = in vivo
Experimental: In the second test, the tolerability and taste of a small aerosol sample from a 0.5 ml aliquot of the test formulation was determined in a single healthy human volunteer, following nebulization in a PARI eFlow nebulizer (Table 12).
The tolerability and taste of the drug during a very brief administration period and for a period of 10 minutes post administration were monitored. Tolerability parameters were of the following types: (i) cough, cough sensation, or sneezing (ii) irritation, burning or tightness of throat, (ii) irritation or runniness in nasal passages or eyes, (iii) irritation, burning or tightness of the lungs or shortness of breadth, and (iv) dizziness, headache, nausea or other systemic effects.

[7] = 1 h, read-out: DeltaLOG CPU 1 hr, route IT, dose 25 mg/kg, 1 hr post-drug administration
[8] = 4 h, read-out: DeltaLOG CPU 4 hr, route IT, dose 25 mg/kg, 4 hr post-drug administration
[9] = ip, 1 h, read-out: DeltaLOG CPU 1 hr, route IP, dose 25 mg/kg, 1 hr post-drug administration
[10] = ip, 4 h, read-out: DeltaLOG CPU 4 hr, route IP, dose 25 mg/kg, 4 hr post-drug administration

Compound: N[C@@H]1[C@H]2CN(c3nc4c(cc3F)c(=O)c(C(=O)O)cn4-c3ccc(F)cc3F)C[C@@H]12 [Trovafloxacin]
- Initial Solution pH (physchem): 4.2
- Initial Solution Appearance (physchem): colorless, slightly cloudy, no
- solubility at 10 min (physchem): > 10000 µg/mL
- pH of final solution (physchem): 4.2
- MSSA MIC90 (MSSA): 0.06 µg/mL
- MRSA MIC90 ([1]; Table 6): 8 µg/mL
- Pa MIC90 ([2]; Table 6): >32 µg/mL
- SP MIC90 [3]: 0.25 µg/mL

Compound: CCN1CCN(c2cc3c(cc2F)c(=O)c(C(=O)O)cn3C2CC2)CC1 [Enrofloxacin]
- Sa MIC90 (Sa): 0.125 µg/mL
- MRSA MIC90 ([1]; Table 7): 8 µg/mL
- Pa MIC90 ([2]; Table 7): >16 µg/mL
- Sp MIC90 [3]: 1 µg/mL

Compound: Cc1c(N2C[C@@H](N)C3(CC3)C2)c(F)c(N)c2c(=O)c(C(=O)O)cn(C3CC3)c12 [Olamufloxacin]
- Sa MIC90 (Sa): 1 µg/mL
- MRSA MIC90 ([1]; Table 7): 2 µg/mL
- Pa MIC90 ([2]; Table 7): 16 µg/mL
- Sp MIC90 [3]: 0.06 µg/mL

Compound: Cc1oc(=O)oc1CN1CCN(c2cc3c(cc2F)c(=O)c(C(=O)O)c2n3C(C)S2)CC1 (stereo not shown) [Prulifloxacin]
- Sa MIC90 (Sa): 0.25 µg/mL
- MRSA MIC90 ([1]; Table 7): 32 µg/mL
- Pa MIC90 ([2]; Table 7): 16 µg/mL
- Sp MIC90 [3]: 1 µg/mL

Compound: CN1CCN(c2cc3c(cc2F)c(=O)c(C(=O)O)cn3-c2ccc(F)cc2)CC1 [Difloxacin]
- Sa MIC90 (Sa): 0.5 µg/mL
- Pa MIC90 ([2]; Table 7): 32 µg/mL
- Sp MIC90 [3]: 2 µg/mL

Compound: NC1CCN(c2c(F)cc3c(=O)c(C(=O)O)cn(C4CC4)c3c2Cl)C1 (stereo not shown) [Clinafloxacin]
- Sa MIC90 (Sa): 0.06 µg/mL
- AUC ([4]; inhaled or intranasal, IT): 30.8 µg·h/mL
- AUC(0-inf) ([4]; inhaled or intranasal, IT): 3.2 µg·h/mL
- half-life ([4]; inhaled or intranasal, IT): 44.4 min
- MRSA MIC90 ([1]; Table 7): 2 µg/mL
- Pa MIC90 ([2]; Table 7): 4 µg/mL
- Sp MIC90 [3]: 0.06 µg/mL
- log reduction at 10 mg/kg ([5]; 1 h, read-out: DeltaLOG CPU 1 hr, route IT, dose 10 mg/kg, 1 hr post-drug administration): 2.71
- log reduction at 25 mg/kg [5, 7]: 2.86
- log reduction at 10 mg/kg ([5]; 4 h, read-out: DeltaLOG CPU 4 hr, route IT, dose 10 mg/kg, 4 hr post-drug administration): 2.4
- log reduction at 25 mg/kg [5, 8]: 2.47
- log reduction at 10 mg/kg ([5]; ip, 1 h, read-out: DeltaLOG CPU 1 hr, route IP, dose 10 mg/kg, 1 hr post-drug administration): 0.96
- log reduction at 25 mg/kg [5, 9]: 1.32
- log reduction at 10 mg/kg ([5]; ip, 4 h, read-out: DeltaLOG CPU 4 hr, route IP, dose 10 mg/kg, 4 hr post-drug administration): 1.39
- log reduction at 25 mg/kg [5, 10]: 1.33

Compound: O=C(O)c1cn(-c2ccc(F)cc2)c2cc(N3CCNCC3)c(F)cc2c1=O [Sarafloxacin]
- Sa MIC90 (Sa): 0.25 µg/mL
- MRSA MIC90 ([1]; Table 7): >16 µg/mL
- Pa MIC90 ([2]; Table 7): >16 µg/mL

Compound: CCn1cc(C(=O)O)c(=O)c2cc(F)c(N3CCN(C)CC3)cc21 [Pefloxacin]
- MSSA MIC90 (MSSA): 2 µg/mL
- MRSA MIC90 ([1]; Table 6): >32 µg/mL
- Pa MIC90 ([2]; Table 6): >32 µg/mL
- SP MIC90 [3]: 32 µg/mL

Compound: C[C@@H]1CN(c2c(F)c(N)c3c(=O)c(C(=O)O)cn(C4CC4)c3c2F)C[C@H](C)N1 [Sparfloxacin]
- Initial Solution pH (physchem): 5.0
- Initial Solution Appearance (physchem): bright yellow, turbid, visible
- After pH Adjustment Appearance (physchem): bright yellow, densely
- After pH Adjustment pH (physchem): 1.5
- pH of final solution (physchem): 1.5
- solubility on titration with 1N HCl (physchem): solubility was not reached by pH 1.5
- MSSA MIC90 (MSSA): 0.125 µg/mL
- MRSA MIC90 ([1]; Table 6): 16 µg/mL
- Pa MIC90 ([2]; Table 6): 32 µg/mL
- SP MIC90 [3]: 0.5 µg/mL
- log reduction at 25 mg/kg [5, 7]: 1.56
- log reduction at 25 mg/kg [5, 8]: 0.81
- log reduction at 25 mg/kg [5, 9]: 0.85
- log reduction at 25 mg/kg [5, 10]: -0.09

Compound: CN1CCN(c2c(F)cc3c(=O)c(C(=O)O)cn(CCF)c3c2F)CC1 [Fleroxacin]
- Sa MIC90 (Sa): 1 µg/mL
- MRSA MIC90 ([1]; Table 7): >4 µg/mL
- Pa MIC90 ([2]; Table 7): 32 µg/mL
- Sp MIC90 [3]: 8 µg/mL

Compound: CCn1cc(C(=O)O)c(=O)c2cc(F)c(N3CCNCC3)cc21 [Norfloxacin]
- Sa MIC90 (Sa): 1 µg/mL
- F, % from Lung vs. IV ([4]; IT): 100%
- AUC ([4]; inhaled or intranasal, IT): 41.7 µg·h/mL
- AUC ([4]; iv): 3.27 µg·h/mL
- MRSA MIC90 ([1]; Table 7): >4 µg/mL
- Pa MIC90 ([2]; Table 7): 16 µg/mL
- Sp MIC90 [3]: 16 µg/mL

Compound: CN1CCN(c2c(F)cc3c(=O)c(C(=O)O)cn4c3c2SCC4)CC1 [Rufloxacin]
- Sa MIC90 (Sa): 2 µg/mL
- MRSA MIC90 ([1]; Table 7): 64 µg/mL
- Pa MIC90 ([2]; Table 7): 32 µg/mL
- Sp MIC90 [3]: 32 µg/mL

Compound: CCn1cc(C(=O)O)c(=O)c2cc(F)c(N3CCNCC3)nc21 [Enoxacin]
- Sa MIC90 (Sa): 1 µg/mL
- MRSA MIC90 ([1]; Table 7): >4 µg/mL
- Pa MIC90 ([2]; Table 7): >32 µg/mL
- Sp MIC90 [3]: 16 µg/mL

Compound: NC[C@H]1O[C@H](O[C@H]2[C@H](O)[C@@H](O[C@H]3O[C@H](CO)[C@@H](O)[C@H](N)[C@H]3O)[C@H](N)C[C@@H]2N)[C@H](N)C[C@@H]1O [Tobramycin]
- F, % from Lung vs. IV ([4]; IT): 81%
- AUC ([4]; inhaled or intranasal, IT): 5150 µg·h/mL
- AUC ([4]; iv): 27.6 µg·h/mL
- AUC(0-inf) ([4]; inhaled or intranasal, IT): 13.8 µg·h/mL
- half-life ([4]; inhaled or intranasal, IT): 60 min
- AUC(0-inf) ([4]; iv): 15.7 µg·h/mL
- half-life ([4]; iv): 30 min
- log reduction at 5 mg/kg ([5]; 1 h, read-out: DeltaLOG CPU 1 hr, route IT, dose 5 mg/kg, 1 hr post-drug administration): 1.59
- log reduction at 5 mg/kg ([5]; 4 h, read-out: DeltaLOG CPU 4 hr, route IT, dose 5 mg/kg, 4 hr post-drug administration): 0.94
- log reduction at 5 mg/kg ([5]; ip, 1 h, read-out: DeltaLOG CPU 1 hr, route IP, dose 5 mg/kg, 1 hr post-drug administration): 0.7
- log reduction at 5 mg/kg ([5]; ip, 4 h, read-out: DeltaLOG CPU 4 hr, route IP, dose 5 mg/kg, 4 hr post-drug administration): -0.29

Compound: CNC1CCCN(c2c(F)cc3c(=O)c(C(=O)O)cn(C4CC4)c3c2OC)C1 (stereo not shown) [Balofloxacin]
- Sa MIC90 (Sa): 0.25 µg/mL
- MRSA MIC90 ([1]; Table 7): 8 µg/mL
- Pa MIC90 ([2]; Table 7): 32 µg/mL
- Sp MIC90 [3]: 0.5 µg/mL

Compound: N[C@@H]1CN(c2c(F)cc3c(=O)c(C(=O)O)cn([C@@H]4C[C@@H]4F)c3c2Cl)CC12CC2 [Sitafloxacin]
- Sa MIC90 (Sa): 0.125 µg/mL
- MRSA MIC90 ([1]; Table 7): 4 µg/mL
- Pa MIC90 ([2]; Table 7): 8 µg/mL
- Sp MIC90 [3]: 0.06 µg/mL

Compound: C[C@H]1NCc2cc(-c3ccc4c(=O)c(C(=O)O)cn(C5CC5)c4c3OC(F)F)ccc21 [Garenoxacin]
- Sa MIC90 (Sa): 0.06 µg/mL
- MRSA MIC90 ([1]; Table 7): 8 µg/mL
- Pa MIC90 ([2]; Table 7): >32 µg/mL
- Sp MIC90 [3]: 0.06 µg/mL

Compound: C[C@H]1COc2c(C3(N)CC3)c(F)cc3c(=O)c(C(=O)O)cn1c23 [Pazufloxacin]
- Sa MIC90 (Sa): 0.5 µg/mL
- MRSA MIC90 ([1]; Table 7): >16 µg/mL
- Pa MIC90 ([2]; Table 7): >32 µg/mL
- Sp MIC90 [3]: 4 µg/mL

Compound: CN1C[C@@H]2C[C@H]1CN2c1cc2c(cc1F)c(=O)c(C(=O)O)cn2C1CC1 [Danofloxacin]
- Sa MIC90 (Sa): 0.125 µg/mL
- Pa MIC90 ([2]; Table 7): >16 µg/mL

Compound: CN1CCN(c2c(F)cc3c(=O)c(C(=O)O)cn4c3c2OCN4C)CC1 [Marbofloxacin]
- Initial Solution pH (physchem): 6.5
- Initial Solution Appearance (physchem): white, very turbid, visible
- After pH Adjustment Appearance (physchem): White, turbid, visible
- After pH Adjustment pH (physchem): 1.5
- pH of final solution (physchem): 1.5
- solubility on titration with 1N HCl (physchem): solubility was not reached by pH 1.5
- MSSA MIC90 (MSSA): 2 µg/mL
- Pa MIC90 ([2]; Table 6): 8 µg/mL
- SP MIC90 [3]: 2 µg/mL

Compound: Cc1c(F)c(N2CCNC(C)C2)cc2c1c(=O)c(C(=O)O)cn2C1CC1 (stereo not shown) [Grepafloxacin]
- Sa MIC90 (Sa): 0.125 µg/mL
- MRSA MIC90 ([1]; Table 7): 32 µg/mL
- Pa MIC90 ([2]; Table 7): >32 µg/mL
- Sp MIC90 [3]: 0.5 µg/mL

Compound: COc1c(N2C[C@@H]3CCCN[C@@H]3C2)c(F)cc2c(=O)c(C(=O)O)cn(C3CC3)c12 [Moxifloxacin]
- solubility/pH characteristics (physchem): best solubility/pH characteristics
- solubility at 10 min (physchem): > 10000 µg/mL
- Aerosol Tolerability and Taste [6]: moderate bitter unpleasant taste, some
- cough on aerosol exposure [6]: associated with cough
